Measured values as given in US20240277860A1, “CAMPTOTHECIN PEPTIDE CONJUGATES” (priority 2019, published 2024).
Read-outs that look alike come from different tables or passages of the source.

Assays:
Type in all cases: cell-based
[1] = system: multiple myeloma cells (MM.1R); experiment: In vitro potency, CellTiter-Glo growth inhibition, MM.1R; conditions: 96 h, read-out: IC50 MM.1R
Protocol: (§1) In vitro potency was assessed on multiple cancer cell lines. All cell lines were authenticated by STR profiling at IDEXX Bioresearch and cultured for no more than 2 months after resuscitation. Cells cultured in log-phase growth were seeded for 24 hours in 96-well plates containing 150 μl RPMI 1640 supplemented with 20% FBS. Serial dilutions of antibody-drug conjugates in cell culture media were prepared at 4× working concentrations, and 50 μl of each dilution was added to the 96-well plates. Following addition of test articles, cells were incubated with test articles for 4 days at 37° C. After 96 hours, growth inhibition was assessed by CellTiter-Glo® (Promega, Madison, WI) and luminescence was measured on a plate reader. The IC50 value, determined in triplicate, is defined here as the concentration that results in 50% reduction in cell growth relative to untreated controls.
(§2) In the following Tables IC50 values for ADCs and campthothecin free drugs are given in ng/mL and […] concentrations, respectively. Cell viability was determined by CellTiter-Glo staining after 96 h exposure to ADC. ND=Not Determined. Ag1 is an antibody targeting a ubiquitous and readily internalizable antigen on cancer cells.

[2] = system: melanoma cells (SK-MEL-5); experiment: In vitro potency, CellTiter-Glo growth inhibition, SK-MEL-5; conditions: Homo sapiens, read-out: IC50 SK-MEL-5
Protocol: as §1, §2

[3] = system: B-lymphocyte cancer cells (SU-DHL-4); experiment: In vitro potency, CellTiter-Glo growth inhibition, SU-DHL-4; conditions: Homo sapiens, read-out: IC50 SU-DHL-4
Protocol: as §1, §2

[4] = system: MDR(+) acute promyelocytic leukemia cells (HL60/RV); experiment: In vitro potency, CellTiter-Glo growth inhibition, HL60/RV; conditions: Homo sapiens, read-out: IC50 HL60/RV
Protocol: as §1, §2

[5] = system: B-lymphocyte cancer cells (U266); experiment: In vitro potency, CellTiter-Glo growth inhibition, U-266; conditions: Homo sapiens, read-out: IC50 U-266
Protocol: as §1, §2

[6] = system: Hodgkin's lymphoma cells (L540cy); experiment: In vitro potency, CellTiter-Glo growth inhibition, L540cy; conditions: 96 h, read-out: IC50 L540cy
Protocol: as §1, §2

[7] = system: renal carcinoma cells (786-O); experiment: In vitro potency, CellTiter-Glo growth inhibition, 786-O; conditions: Homo sapiens, read-out: IC50 786-O
Protocol: as §1, §2

[8] = system: MDR(−) acute promyelocytic leukemia cells (HL-60); experiment: In vitro potency, CellTiter-Glo growth inhibition, HL-60; conditions: Homo sapiens, read-out: IC50 HL-60
Protocol: as §1, §2

[9] = system: pancreatic cancer cells (BxPC3); experiment: In vitro potency, CellTiter-Glo growth inhibition, BxPC3; conditions: Homo sapiens, read-out: IC50 BxPC3
Protocol: as §1, §2

[10] = system: Burkitt's lymphoma cells (Ramos); experiment: In vitro potency, CellTiter-Glo growth inhibition, Ramos; conditions: Homo sapiens, 96 h, read-out: IC50 Ramos
Protocol: as §1, §2

[11] = system: acute myeloid leukemia cells (MOLM13); experiment: In vitro potency, CellTiter-Glo growth inhibition, MOLM-13; conditions: Homo sapiens, read-out: IC50 MOLM-13
Protocol: as §1, §2

[12] = camptothecin free drugs, CellTiter-Glo
[13] = SK-MEL-5, camptothecin free drugs, 96 h, CellTiter-Glo
[14] = SU-DHL-4, camptothecin free drugs, 96 h, CellTiter-Glo
[15] = HL-60, camptothecin free drugs, 96 h, CellTiter-Glo
[16] = U-266, camptothecin free drugs, 96 h, CellTiter-Glo
[17] = 786-0, camptothecin free drugs, 96 h, CellTiter-Glo
[18] = BXPC-3, camptothecin free drugs, 96 h, CellTiter-Glo
[19] = MOLM-13, camptothecin free drugs, 96 h, CellTiter-Glo

| SMILES | IC50 [1] | IC50 ([2]; SK-MEL-5, 96 h) | IC50 ([3]; SU-DHL-4, 96 h) | IC50 ([4]; HL-60, 96 h) | IC50 ([5]; U-266, 96 h) | IC50 [6] | IC50 ([7]; 786-0, 96 h) | IC50 ([8]; HL-60, 96 h) | IC50 ([9]; BXPC-3, 96 h) | IC50 [10] | IC50 ([11]; MOLM-13, 96 h) | IC50 [1, 12] | IC50 [2, 13] | IC50 [3, 14] | IC50 [4, 15] | IC50 [5, 16] | IC50 [6, 12] | IC50 [7, 17] | IC50 [8, 15] | IC50 [9, 18] | also measured |
| --- | --- | --- | --- | --- | --- | --- | --- | --- | --- | --- | --- | --- | --- | --- | --- | --- | --- | --- | --- | --- | --- |
| CC[C@@]1(O)C(=O)OCc2c1cc1n(c2=O)Cc2c-1nc1cc3c(cc1c2CNC(=O)[C@@H](N)CC(C)C)OCO3 [Compound 3] | 4 nM | 15 nM | 3 nM | 194 nM | 6 nM | 5 nM | > 1000 nM | 30 nM | 9 nM | 2 nM | 8 nM |  |  |  |  |  |  |  |  |  |  |
| CC[C@@]1(O)C(=O)OCc2c1cc1n(c2=O)Cc2c-1nc1cc3c(cc1c2CNC(=O)[C@H](C)N)OCO3 [Compound 3a] | 8 nM | 49 nM | 8 nM | 416 nM | 20 nM | 12 nM | 381 nM | 106 nM | 42 nM | 6 nM | 23 nM |  |  |  |  |  |  |  |  |  |  |
| CC[C@@]1(O)C(=O)OCc2c1cc1n(c2=O)Cc2c-1nc1cc3c(cc1c2CNC(=O)[C@@H](N)C(C)C)OCO3 [Compound 3b] | 4 nM | 14 nM | 2 nM | 857 nM | 8 nM | 6 nM | > 1000 nM | 23 nM | 12 nM | 1 nM | 5 nM |  |  |  |  |  |  |  |  |  |  |
| CC[C@@]1(O)C(=O)OCc2c1cc1n(c2=O)Cc2c-1nc1cc3c(cc1c2CNC(=O)C(C)(C)N)OCO3 [Compound 3d] | 3 nM | 14 nM | 3 nM | 840 nM | 4 nM | 4 nM | > 1000 nM | 25 nM | 10 nM | 1 nM | 5 nM |  |  |  |  |  |  |  |  |  |  |
| CC[C@@]1(O)C(=O)OCc2c1cc1n(c2=O)Cc2c-1nc1cc3c(cc1c2CNC(=O)[C@@H](N)CCSC)OCO3 [Compound 3e] | 6 nM | 27 nM | 5 nM | 370 nM | 12 nM | 13 nM | > 1000 nM | 92 nM | 19 nM | 4 nM | 16 nM |  |  |  |  |  |  |  |  |  |  |
| CC[C@@]1(O)C(=O)OCc2c1cc1n(c2=O)Cc2c-1nc1cc3c(cc1c2CNC(=O)[C@@H](N)Cc1ccccc1)OCO3 [Compound 3f] |  |  |  |  |  |  |  |  |  |  |  | 9 nM | 45 nM | 5 nM | > 1000 nM | 17 nM | 34 nM | > 1000 nM | 88 nM | 39 nM | IC50 [10, 12]: 4 nM; IC50 [11, 19]: 14 nM |
| CC[C@@]1(O)C(=O)OCc2c1cc1n(c2=O)Cc2c-1nc1cc3c(cc1c2CNC(=O)[C@@H](N)CCCNC(=N)N)OCO3 [Compound 3g] |  |  |  |  |  |  |  |  |  |  |  | 6 nM | 34 nM | 6 nM | 51 nM | 15 nM | 4 nM | > 1000 nM | 191 nM | 18 nM | IC50 [10, 12]: 6 nM; IC50 [11, 19]: 57 nM |
| CC[C@@]1(O)C(=O)OCc2c1cc1n(c2=O)Cc2c-1nc1cc3c(cc1c2CNC(=O)[C@@H](N)CCCCN)OCO3 [Compound 3h] | 13 nM | 60 nM | 14 nM | 128 nM | 36 nM | 7 nM | > 1000 nM | 552 nM | 42 nM | 12 nM | 97 nM |  |  |  |  |  |  |  |  |  |  |
| CC[C@@]1(O)C(=O)OCc2c1cc1n(c2=O)Cc2c-1nc1cc3c(cc1c2CNC(=O)[C@@H](N)Cc1c[nH]cn1)OCO3 [Compound 3i] |  |  |  |  |  |  |  |  |  |  |  | 147 nM | 414 nM | 255 nM | > 1000 nM | 452 nM | 321 nM | 22 nM | > 1000 nM | 331 nM | IC50 [10, 12]: 197 nM; IC50 [11, 19]: 996 nM |
| CC[C@@]1(O)C(=O)OCc2c1cc1n(c2=O)Cc2c-1nc1cc3c(cc1c2CNC(=O)[C@@H](N)CC(=O)O)OCO3 [Compound 3j] | 318 nM | 910 nM | 145 nM | > 1000 nM | 436 nM | 687 nM | 26 nM | > 1000 nM | 648 nM | 99 nM | 588 nM |  |  |  |  |  |  |  |  |  |  |
| CC[C@@]1(O)C(=O)OCc2c1cc1n(c2=O)Cc2c-1nc1cc3c(cc1c2CNC(=O)[C@@H](N)CCC(=O)O)OCO3 [Compound 3k] |  |  |  |  |  |  |  |  |  |  |  | 576 nM | > 1000 nM | 667 nM | > 1000 nM | > 1000 nM | 415 nM | 21 nM | > 1000 nM | > 1000 nM | IC50 [10, 12]: 451 nM; IC50 [11, 19]: > 1000 nM |
| CC[C@@]1(O)C(=O)OCc2c1cc1n(c2=O)Cc2c-1nc1cc3c(cc1c2CNC(=O)[C@@H](N)[C@@H](C)O)OCO3 [Compound 3l] | 22 nM | 109 nM | 16 nM | > 1000 nM | 57 nM | 27 nM | > 1000 nM | 298 nM | 64 nM | 8 nM | 45 nM |  |  |  |  |  |  |  |  |  |  |
| CC[C@@]1(O)C(=O)OCc2c1cc1n(c2=O)Cc2c-1nc1cc3c(cc1c2CNC(=O)[C@@H](N)CCC(N)=O)OCO3 [Compound 3m] | 30 nM | 208 nM | 71 nM | > 1000 nM | 86 nM | 76 nM | 51 nM | 823 nM | 160 nM | 34 nM | 125 nM |  |  |  |  |  |  |  |  |  |  |
